Experimental data as given in PubChem BioAssay AID1259411 (Chemical Carcinogenesis Research Information System (CCRIS), 2018).
Activity calls are given as the source filed them. No rule for the calls is given here.

Test system: rodent carcinogenicity bioassays, tumor incidence
Assay: CCRIS carcinogenicity studies
Procedure, shortened: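 Archive of carcinogenicity, mutagenicity, tumor promotion and tumor inhibition results drawn from journals, NCI reports and other sources, expert-reviewed; covers 1985-2011 and is no longer updated.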

SMILES: CNC(=O)N(C)N=O
- carcinogen call (Species: RAT, Strain/Sex: F344/FEMALE, Route: GAVAGE, Dose: 0, 20, 40 UMOL/WK IN CORN OIL/ETHYL ACETATE (2: 1) FOR 30 WK FOR TOTAL DOSES OF 0, 0.6, 1.2 MMOL (STUDY DURATION: LIFETI, Dose: 0, 20, 40 UMOL/WK IN CORN OIL/ETHYL ACETATE (2: 1) FOR 30 WK FOR TOTAL DOSES OF 0, 0.6, 1.2 MMOL (STUDY DURATION: LIFETI, Tumor Site: Type of Lesion: NERVOUS SYSTEM: TUMOR): active; positive
- carcinogen call (Species: RAT, Strain/Sex: F344/FEMALE, Route: INTRAVESICULAR, Dose: 0, 2.4 MG 2/WK FOR 30 WK (STUDY DURATION: LIFETIME), Tumor Site: Type of Lesion: BRAIN: TUMOR, KIDNEY: TUMOR): active; positive
- carcinogen call (Species: RAT, Strain/Sex: F344/FEMALE, Route: ORAL, Dose: 0, 20, 40 UMOL/WK IN DRINKING WATER FOR 30 WK FOR TOTAL DOSES OF 0, 0.6, 1.2 MMOL (STUDY DURATION: LIFETIME), Dose: 0, 20, 40 UMOL/WK IN DRINKING WATER FOR 30 WK FOR TOTAL DOSES OF 0, 0.6, 1.2 MMOL (STUDY DURATION: LIFETIME), Tumor Site: Type of Lesion: UTERUS: TUMOR, THYROID: FOLLICULAR CELL TUMOR, NERVOUS SYSTEM: TUMOR, Tumor Site: Type of Lesion: UTERUS: TUMOR, THYROID: FOLLICULAR CELL TUMOR, NERVOUS SYSTEM: TUMOR): active; positive
- carcinogen call (Species: RAT, Strain/Sex: F344/MALE, Route: GAVAGE, Dose: 0, 20, 40 UMOL/WK IN CORN OIL/ETHYL ACETATE (2: 1) FOR 30 WK FOR TOTAL DOSES OF 0, 0.6, 1.2 MMOL (STUDY DURATION: LIFETI, Dose: 0, 20, 40 UMOL/WK IN CORN OIL/ETHYL ACETATE (2: 1) FOR 30 WK FOR TOTAL DOSES OF 0, 0.6, 1.2 MMOL (STUDY DURATION: LIFETI, Tumor Site: Type of Lesion: NERVOUS SYSTEM: TUMOR, TESTIS: MESOTHELIOMA): active; positive
- carcinogen call (Species: RAT, Strain/Sex: F344/MALE, Route: ORAL, Dose: 0, 20, 40 UMOL/WK IN DRINKING WATER FOR 30 WK FOR TOTAL DOSES OF 0, 0.6, 1.2 MMOL (STUDY DURATION: LIFETIME), Dose: 0, 20, 40 UMOL/WK IN DRINKING WATER FOR 30 WK FOR TOTAL DOSES OF 0, 0.6, 1.2 MMOL (STUDY DURATION: LIFETIME), Tumor Site: Type of Lesion: TESTIS: MESOTHELIOMA, NERVOUS SYSTEM: TUMOR): active; positive

SMILES: c1cc2ccc3cc4cccc5ccc6cc(c1)c2c3c6c54
- carcinogen call (Species: MOUSE, Route: DERMAL, Tumor Site: Type of Lesion: INTEGUMENTARY SYSTEM (SKIN)): active; positive
- carcinogen call (Species: RAT, Strain/Sex: OSBORNE-MENDEL/FEMALE, Route: LUNG IMPLANT, Dose: 0, 0.16, 0.83 MG IN BEESWAX/TRIOCTANOIN (STUDY DURATION: LIFETIME), Dose: 0, 0.16, 0.83 MG IN BEESWAX/TRIOCTANOIN (STUDY DURATION: LIFETIME), Tumor Site: Type of Lesion: LUNG: EPIDERMOID CARCINOMA): active; positive

SMILES: CCCCCCOc1cc2c(c3ccc4ccccc4c13)CCC2=O
- carcinogen call (Species: MOUSE, Strain/Sex: TO/MALE, FEMALE, Route: DERMAL, Dose: 0, 50 UG (10 µL OF A 0.5% W/V TOLUENE SOLUTION) 2/WK FOR 70 WK (STUDY DURATION: 70 WK)): inactive; negative

SMILES: C#CCN1CC(=O)N(COC(=O)C2C(C=C(C)C)C2(C)C)C1=O (centres undefined)
- carcinogen call (Species: Mouse, Strain/Sex: Crj:CD-1 (ICR)/Female (51/Group), Route: Oral, Dose: 0, 100, 3500, 7000 ppm of 92.9% imiprothrin in diet for 78 wk, study duration 78 wk, Dose: 0, 100, 3500, 7000 ppm of 92.9% imiprothrin in diet for 78 wk, study duration 78 wk): inactive; negative
- carcinogen call (Species: Mouse, Strain/Sex: Crj:CD-1 (ICR)/Male (51/Group), Route: Oral, Dose: 0, 100, 3500, 7000 ppm of 92.9% imiprothrin in diet for 78 wk, study duration 78 wk, Dose: 0, 100, 3500, 7000 ppm of 92.9% imiprothrin in diet for 78 wk, study duration 78 wk): inactive; negative
- carcinogen call (Species: Rat, Strain/Sex: Sprague-Dawley/Female (50/Group), Route: Oral, Dose: 0, 50, 250, 2500, 5000 ppm of 92.9% imiprothrin in diet for 104 wk, study duration 104 wk, Dose: 0, 50, 250, 2500, 5000 ppm of 92.9% imiprothrin in diet for 104 wk, study duration 104 wk): inactive; negative
- carcinogen call (Species: Rat, Strain/Sex: Sprague-Dawley/Male (50/Group), Route: Oral, Dose: 0, 50, 250, 2500, 5000 ppm of 92.9% imiprothrin in diet for 104 wk, study duration 104 wk, Dose: 0, 50, 250, 2500, 5000 ppm of 92.9% imiprothrin in diet for 104 wk, study duration 104 wk): inactive; negative

SMILES: Cc1ncc([N+](=O)[O-])n1CCO
- carcinogen call (Species: MOUSE, Route: ORAL, Tumor Site: Type of Lesion: LUNG, LYMPHATIC SYSTEM: LYMPHOMA (NOS)): active; positive
- carcinogen call (Species: RAT, Route: ORAL, Tumor Site: Type of Lesion: MAMMARY GLAND): active; positive

SMILES: CCOC(=O)N(CC)N=O
- carcinogen call (Species: HAMSTER, Strain/Sex: SYRIAN/FEMALE, Route: GAVAGE, Dose: 0, 14 MG/ML ((0.2 ML OF A SOLUTION IN ETHYL ACETATE/CORN OIL (1:2)) 1/WK FOR 28 WK (STUDY DURATION: LIFE SPAN), Tumor Site: Type of Lesion: PANCREAS: CARCINOMA OR ADENOMA, FORESTOMACH: SQUAMOUS CELL CARCINOMA OR PAPILLOMA): active; positive
- carcinogen call (Species: RAT, Strain/Sex: DONRYU/FEMALE, Route: ORAL, Dose: 0, 25, 50, 100 PPM IN DRINKING WATER FOR 60 WK, Dose: 0, 25, 50, 100 PPM IN DRINKING WATER FOR 60 WK, Tumor Site: Type of Lesion: ORAL CAVITY: PAPILLOMA, CARCINOMA, ESOPHAGUS: PAPILLOMA, CARCINOMA, FORESTOMACH: PAPILLOMA, CARCINOMA, DUODENUM: ADENOMA, Tumor Site: Type of Lesion: ORAL CAVITY: PAPILLOMA, CARCINOMA, ESOPHAGUS: PAPILLOMA, CARCINOMA, FORESTOMACH: PAPILLOMA, CARCINOMA, DUODENUM: ADENOMA): active; positive
- carcinogen call (Species: RAT, Strain/Sex: F344/FEMALE, Route: GAVAGE, Dose: 0, 0.36, 1.6 MG/ANIMAL IN CORN OIL 1/WK FOR 20 WK (STUDY DURATION: 114 WK), Dose: 0, 0.36, 1.6 MG/ANIMAL IN CORN OIL 1/WK FOR 20 WK (STUDY DURATION: 114 WK), Tumor Site: Type of Lesion: FORESTOMACH: CARCINOMA, PAPILLOMA OR CARCINOMA): active; positive
- carcinogen call (Species: RAT, Strain/Sex: F344/FEMALE, Route: INTRAVESICULAR, Dose: 0, 0.8 MG 2/WK FOR 14 WK (STUDY DURATION: LIFETIME), Tumor Site: Type of Lesion: BLADDER: TUMOR): active; positive
- carcinogen call (Species: RAT, Strain/Sex: F344/FEMALE, Route: ORAL, Dose: 0, 0.15, 0.6, 2.5, 10 PPM IN DISTILLED WATER FOR 2 YRS (STUDY DURATION: 112 WK), Dose: 0, 0.15, 0.6, 2.5, 10 PPM IN DISTILLED WATER FOR 2 YRS (STUDY DURATION: 112 WK), Tumor Site: Type of Lesion: ORAL CAVITY: PAPILLOMA, CARCINOMA, ESOPHAGUS: PAPILLOMA, CARCINOMA, FORESTOMACH: PAPILLOMA, CARCINOMA, Tumor Site: Type of Lesion: ORAL CAVITY: PAPILLOMA, CARCINOMA, ESOPHAGUS: PAPILLOMA, CARCINOMA, FORESTOMACH: PAPILLOMA, CARCINOMA): active; positive
